Data as given in patent US6630615B1, “Defense-related signaling genes and methods of use” (Pioneer Hi-Bred International, Inc., priority 1999, dated 2003).
Entries after “also recorded” stand apart in the source; their conditions may differ.

Test system: sunflower NCE gene expression
Assay: Northern blot analysis of NCE gene transcript levels under different chemical treatments
Type: in vivo
Details: six-week-old SMF3 sunflower plants sprayed with 5 mM oxalic acid, 5 mM H2O2, 5 mM salicylic acid or 45 μM jasmonic acid (0.1% ethanol); leaf samples at 0, 6, 12, 24 hours
Description: FIG. 4 depicts the results of a Northern blot analysis of NCE gene transcript levels under different chemical treatments. Six-week-old sunflower plants were sprayed with oxalic acid (OA) (5 mM), H2O2 (5 mM), salicylic acid (SA) (5 mM), and jasmonic acid (JA) (45 μM in 0.1% ethanol). The leaf samples were collected at 0, 6, 12, and 24 hours after the applications and immediately frozen in liquid nitrogen. Twenty μg of total RNA was loaded in each sample lane. (CK, control)
For fungal infection and chemical treatments, SMF3 sunflower plants were planted in four-inch pots and grown in greenhouse for the first four weeks. After transfer to the growth chamber, the plants were maintained under 12-hour photoperiod at 22° C. with an 80% relative humidity. Six-week old plants were inoculated with Sclerotinid-infected carrot plugs or sprayed with an aqueous solution of either 5 mM oxalic acid, 5 mM H2O2, 5 mM salicylic acid or 45 μM jasmonic acid (with 0.1% ethanol). For each plant, three petioles were inoculated and wrapped with a 1 inch×2 inch piece of parafilm. Plant tissue samples were harvested at different time points and immediately frozen in liquid nitrogen and then stored at −80° C.
Plant materials were ground in liquid nitrogen, and total RNA was extracted by the Tri-Reagent method. RNA profiling was conducted using CuraGen Corporation's proprietary method sold under the trademark GENECALLING. See U.S. Pat. No. 5,871,697, herein incorporated by reference. Profiles of RNA samples prepared from combined leaf and stem tissues of six-week-old oxox sunflower plants were compared to profiles of similar RNA samples from of six-week-old SMF3 plants.
Total RNA (20 μg) was separated in a 1% agarose gel containing formaldehyde. Ethidium bromide was included to verify equal loading of RNA. After transfer onto Hybond N+membrane, the blots were hybridized with ^32P-labeled NCE, AAP, or GRP cDNA probes. As a control, a duplicate blot was hybridized with a probe complementary to 18S rRNA. Hybridization and washing conditions were performed according to Church et al. ((1984) Proc. Natl. Acad. Sci. USA 81:1991-1995).

Compound | NCE gene expression (transcript level, Northern blot)
OO [H2O2] | negatively regulated; also recorded: down-regulated
CC/C=C\C[C@H]1C(=O)CC[C@@H]1CC(=O)O [jasmonic acid] | negatively regulated; also recorded: down-regulated
O=C(O)C(=O)O [oxalic acid] | negatively regulated
O=C(O)c1ccccc1O [salicylic acid] | negatively regulated; also recorded: down-regulated
